Source: US11325938B2, “CD73 inhibitors” (ORIC Pharmaceuticals, Inc., priority 2018, dated 2022)

Molecular target: CD73 (Homo sapiens (Human), UniProt P21589)
Test: Biochemical assay: inhibition of CD73 activity (AMP hydrolysis, Malachite Green readout)
Conditions: CD73 0.3208 nM, AMP 15 μM, 25 mM Tris-HCl pH 7.4, RT, absorbance 620 nm
Method in brief: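 Human CD73 (320 pM final) preincubated 15 min at RT with compounds (10-point ½-log titration from 100 μM, duplicates) in 25 mM Tris-HCl pH 7.4, 5 mM MgCl2, 0.01% Brij-35, 0.01% BSA. 15 μM AMP added, 10 min at RT; released phosphate read by Malachite Green absorbance; IC50 determined.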

Chain of CD73 (P21589 27-574): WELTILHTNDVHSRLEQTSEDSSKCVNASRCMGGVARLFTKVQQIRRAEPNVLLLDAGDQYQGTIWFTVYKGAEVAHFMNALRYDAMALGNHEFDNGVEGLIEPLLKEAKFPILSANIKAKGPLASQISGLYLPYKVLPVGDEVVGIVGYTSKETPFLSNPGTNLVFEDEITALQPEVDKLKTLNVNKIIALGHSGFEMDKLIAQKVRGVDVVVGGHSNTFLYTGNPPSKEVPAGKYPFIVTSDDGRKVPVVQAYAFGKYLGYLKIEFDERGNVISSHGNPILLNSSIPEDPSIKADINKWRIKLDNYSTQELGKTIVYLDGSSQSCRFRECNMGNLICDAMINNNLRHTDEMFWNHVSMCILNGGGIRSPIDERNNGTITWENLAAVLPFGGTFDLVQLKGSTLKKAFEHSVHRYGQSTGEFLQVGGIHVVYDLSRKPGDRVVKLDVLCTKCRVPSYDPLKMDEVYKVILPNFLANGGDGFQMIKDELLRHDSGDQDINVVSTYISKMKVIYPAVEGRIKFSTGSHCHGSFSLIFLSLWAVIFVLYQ

Compound | IC50
CC(C)(O)COc1nc(NC2CCCC2)c2cnn([C@@H]3O[C@H](COC(CO)(CO)P(=O)(O)O)[C@@H](O)[C@H]3O)c2n1 (racemic) [Example 175, rac-(2-(((2R,3S,4R,5R)-5-(4-(cyclopentylamino)-6-(2-hydroxy-2-methylpropoxy)-1H-pyrazolo[3,4-d]pyrimidin-1-yl)-3,4-dihydroxytetrahydrofuran-2-yl)methoxy)-1,3-dihydroxypropan-2-yl)phosphonic acid] | ≤ 100 nM
O=P(O)(O)[C@](CO)(COCC1CC1)OC[C@H]1O[C@@H](n2ncc3c(NC4CCCC4)nc(Cl)nc32)[C@H](O)[C@@H]1O (racemic) [Example 170, rac-((R)-2-(((2R,3S,4R,5R)-5-(6-chloro-4-(cyclopentylamino)-1H-pyrazolo[3,4-d]pyrimidin-1-yl)-3,4-dihydroxytetrahydrofuran-2-yl)methoxy)-1-(cyclopropylmethoxy)-3-hydroxypropan-2-yl)phosphonic acid] | ≤ 100 nM
O=P(O)(O)C(CO)(CO)OC[C@H]1O[C@@H](n2ncc3c(NCC4CC4)nc(Cl)nc32)[C@H](O)[C@@H]1O [Example 132, (2-(((2R,3S,4R,5R)-5-(6-chloro-4-((cyclopropylmethyl)amino)-1H-pyrazolo[3,4-d]pyrimidin-1-yl)-3,4-dihydroxytetrahydrofuran-2-yl)methoxy)-1,3-dihydroxypropan-2-yl)phosphonic acid] | ≤ 100 nM
COCC(C)(OC[C@H]1O[C@H](n2nnc3c(N[C@@H]4CCc5ccccc54)nc(Cl)nc32)[C@H](O)[C@@H]1O)P(=O)(O)O (stereo partly drawn) [Example 154, (2-(((2R,3S,4R,5S)-5-(5-chloro-7-(((R)-2,3-dihydro-1H-inden-1-yl)amino)-3H-[1,2,3]triazolo[4,5-d]pyrimidin-3-yl)-3,4-dihydroxytetrahydrofuran-2-yl)methoxy)-1-methoxypropan-2-yl)phosphonic acid] | ≤ 100 nM
COCC(COC)(OC[C@H]1O[C@@H](n2ncc3c(NC4CCC4)nc(Cl)nc32)[C@H](O)[C@@H]1O)P(=O)(O)O (racemic) [Example 174, rac-(2-(((2R,3S,4R,5R)-5-(6-chloro-4-(cyclobutylamino)-1H-pyrazolo[3,4-d]pyrimidin-1-yl)-3,4-dihydroxytetrahydrofuran-2-yl)methoxy)-1,3-dimethoxypropan-2-yl)phosphonic acid] | ≤ 100 nM
O=P(O)(O)COC[C@H]1O[C@@H](n2nnc3c(NCc4cccc(Cl)c4)cc(Cl)nc32)[C@H](O)[C@@H]1O [Example 22, ((((2R,3S,4R,5R)-5-(5-chloro-7-((3-chlorobenzyl)amino)-3H-[1,2,3]triazolo[4,5-b]pyridin-3-yl)-3,4-dihydroxytetrahydrofuran-2-yl)methoxy)methyl)phosphonic acid] | ≤ 100 nM
C[C@](CO)(OC[C@H]1O[C@@H](n2ncc3c(NC4CCCC4)cc(Cl)nc32)[C@H](O)[C@@H]1O)P(=O)(O)O (racemic) [Example 193, rac-((R)-2-(((2S,3R,4S,5S)-5-(6-chloro-4-(cyclopentylamino)-1H-pyrazolo[3,4-b]pyridin-1-yl)-3,4-dihydroxytetrahydrofuran-2-yl)methoxy)-1-hydroxypropan-2-yl)phosphonic acid] | ≤ 100 nM
C[C@@](CO)(OC[C@H]1O[C@@H](n2ncc3c(NC4CCCC4)nc(CO)nc32)[C@H](O)[C@@H]1O)P(=O)(O)O [Example 128, ((R)-2-(((2R,3S,4R,5R)-5-(4-(cyclopentylamino)-6-(hydroxymethyl)-1H-pyrazolo[3,4-d]pyrimidin-1-yl)-3,4-dihydroxytetrahydrofuran-2-yl)methoxy)-1-hydroxypropan-2-yl)phosphonic acid] | ≤ 100 nM
O=P(O)(O)C(CO)OC[C@H]1O[C@@H](n2nnc3c(NC4CCCC4)cc(Cl)nc32)[C@H](O)[C@@H]1O (stereo partly drawn) [Example 60, (1-(((2R,3S,4R,5R)-5-(5-chloro-7-(cyclopentylamino)-3H-[1,2,3]triazolo[4,5-b]pyridin-3-yl)-3,4-dihydroxytetrahydrofuran-2-yl)methoxy)-2-hydroxyethyl)phosphonic acid] | ≤ 100 nM
C[C@@H]1CCC[C@@H]1Nc1nc(Cl)nc2c1cnn2[C@@H]1O[C@H](COC(CO)(Cc2nn[nH]n2)P(=O)(O)O)[C@@H](O)[C@H]1O (mixture of isomers) [Example 209, rac-(2-(((2R,3S,4R,5R)-5-(6-chloro-4-(((1S,2R)-2-methylcyclopentyl)amino)-1H-pyrazolo[3,4-d]pyrimidin-1-yl)-3,4-dihydroxytetrahydrofuran-2-yl)methoxy)-1-hydroxy-3-(2H-tetrazol-5-yl)propan-2-yl)phosphonic acid] | ≤ 100 nM

Further lines, results first:

IC50 | Compound
≤ 100 nM | C[C@@H](Nc1nc(Cl)nc2c1cnn2[C@@H]1O[C@H](COC(CO)(CO)P(=O)(O)O)[C@@H](O)[C@H]1O)c1ccc(F)cc1 (racemic) [Example 222, rac-(2-(((2R,3S,4R,5R)-5-(6-chloro-4-(((R)-1-(4-fluorophenyl)ethyl)amino)-1H-pyrazolo[3,4-d]pyrimidin-1-yl)-3,4-dihydroxytetrahydrofuran-2-yl)methoxy)-1,3-dihydroxypropan-2-yl)phosphonic acid]
≤ 100 nM | C[C@](CO)(OC[C@H]1O[C@@H](n2ncc3c(NC4CCC4)nc(Cl)nc32)[C@H](O)[C@@H]1O)P(=O)(O)O [Example 102, ((S)-2-(((2R,3S,4R,5R)-5-(6-chloro-4-(cyclobutylamino)-1H-pyrazolo[3,4-d]pyrimidin-1-yl)-3,4-dihydroxytetrahydrofuran-2-yl)methoxy)-1-hydroxypropan-2-yl)phosphonic acid]
≤ 100 nM | COC[C@](C)(OC[C@H]1O[C@@H](n2ncc3c(NC4CCCC4)nc(Cl)nc32)[C@H](O)[C@@H]1O)P(=O)(O)O [Example 69, ((R)-2-(((2R,3S,4R,5R)-5-(6-chloro-4-(cyclopentylamino)-1H-pyrazolo[3,4-d]pyrimidin-1-yl)-3,4-dihydroxytetrahydrofuran-2-yl)methoxy)-1-methoxypropan-2-yl)phosphonic acid]
≤ 100 nM | O=P(O)(O)C(CO)(CCO)OC[C@H]1O[C@@H](n2ncc3c(NC4CCCC4)nc(Cl)nc32)[C@H](O)[C@@H]1O (stereo partly drawn) [Example 36, (2-(((2R,3S,4R,5R)-5-(6-chloro-4-(cyclopentylamino)-1H-pyrazolo[3,4-d]pyrimidin-1-yl)-3,4-dihydroxytetrahydrofuran-2-yl)methoxy)-1,4-dihydroxybutan-2-yl)phosphonic acid]
≤ 100 nM | C[C@@](CO)(OC[C@H]1O[C@@H](n2ncc3c(NC4CCC4)nc(Cl)nc32)[C@H](O)[C@@H]1O)P(=O)(O)O [Example 101, ((R)-2-(((2R,3S,4R,5R)-5-(6-chloro-4-(cyclobutylamino)-1H-pyrazolo[3,4-d]pyrimidin-1-yl)-3,4-dihydroxytetrahydrofuran-2-yl)methoxy)-1-hydroxypropan-2-yl)phosphonic acid]
≤ 100 nM | O=P(O)(O)COC[C@H]1O[C@@H](n2nnc3c(NCc4ccccc4Cl)cc(Cl)nc32)[C@H](O)[C@@H]1O [Example 26, ((((2R,3S,4R,5R)-5-(5-chloro-7-((2-chlorobenzyl)amino)-3H-[1,2,3]triazolo[4,5-b]pyridin-3-yl)-3,4-dihydroxytetrahydrofuran-2-yl)methoxy)methyl)phosphonic acid]
